Read-outs that look alike come from different tables or passages of the source.
Tests used:
MV4;11 cells = experiment: Cell viability assay (CellTiter-Glo) in MV4;11 cells, alone or with gilteritinib; type: cell-based; details: Homo sapiens, MV4;11 cells, CellTiter-Glo, read-out: MV4
MOLM-13 cells = experiment: Cell viability assay (CellTiter-Glo) in MOLM-13 cells, alone or with gilteritinib; type: cell-based; details: Homo sapiens, MOLM-13 cells, CellTiter-Glo
[1] = MV4-11, 72 h, compound alone (without gilteritinib), three days, 11 IC50
[2] = MV4-11, 72 h, with gilteritinib 10 nM, three days, 11 IC50 gilteritinib
[3] = MOLM-13, 72 h, compound alone (without gilteritinib), three days, read-out: MOLM-13 IC50
[4] = MOLM-13, 72 h, with gilteritinib 20 nM, three days, read-out: MOLM-13 IC50 gilteritinib
[5] = MV4-11, 72 h, compound with gilteritinib 10 nM, three days, 11 IC50 gilteritinib
[6] = MOLM-13, 72 h, compound with gilteritinib 20 nM, three days, read-out: MOLM-13 IC50 gilteritinib

Row | SMILES | IC50 (MV4;11 cells; [1]) [nM] | IC50 (MV4;11 cells; [2]) [nM] | IC50 (MOLM-13 cells; [3]) [nM] | IC50 (MOLM-13 cells; [4]) [nM] | other results
1 | O=C1CCC(N2Cc3c(Nc4ccnc(Nc5ccc(N6CCC(n7cc(-c8cnc9cccc(Br)c9n8)cn7)CC6)cc5)n4)cccc3C2=O)C(=O)N1 (stereo not shown) [GS-026, 3-(4-((2-((4-(4-(4-(8-Bromoquinoxalin-2-yl)-1H-pyrazol-1-yl)piperidin-1-yl)phenyl)amino)pyrimidin-4-yl)amino)-1-oxoisoindolin-2-yl)piperidine-2,6-dione] | > 1000 | > 1000 | > 1000 | > 1000 | 
2 | O=C1CCC(N2Cc3cc(NCCCCC4(N5CCC(n6cc(-c7cnc8ccccc8n7)cn6)CC5)CC4)ccc3C2=O)C(=O)N1 (stereo not shown) [GS-137, 3-(1-Oxo-5-((4-(1-(4-(4-(quinoxalin-2-yl)-1H-pyrazol-1-yl)piperidin-1-yl)cyclopropyl)butyl)amino)isoindolin-2-yl)piperidine-2,6-dione] | > 1000 | > 1000 | > 1000 | > 1000 | 
3 | O=C1CCC(N2Cc3ccc(CCCCC(=O)N4CCC(n5cc(-c6cnc7ccccc7n6)cn5)CC4)cc3C2=O)C(=O)N1 (stereo not shown) [GS-161, 3-(1-Oxo-6-(5-oxo-5-(4-(4-(quinoxalin-2-yl)-1H-pyrazol-1-yl)piperidin-1-yl)pentyl)isoindolin-2-yl)piperidine-2,6-dione] | 100 to 1000 | 10 to 100 | > 1000 | 10 to 100 | 
4 | O=C1CCC(N2C(=O)c3ccc(NCCCCCC(=O)N4CC(n5cc(-c6cnc7cccc(Br)c7n6)cn5)C4)cc3C2=O)C(=O)N1 (stereo not shown) [GS-062, 5-((6-(3-(4-(8-Bromoquinoxalin-2-yl)-1H-pyrazol-1-yl)azetidin-1-yl)-6-oxohexyl)amino)-2-(2,6-dioxopiperidin-3-yl)isoindoline-1,3-dione] |  |  |  |  | IC50 (MV4;11 cells; MV4-11, 72 h, with 10 nM gilteritinib, 3 days, 11 IC50 gilteritinib): 1920 nM; IC50 (MV4;11 cells; MV4-11, 72 h, without gilteritinib, 3 days, 11 IC50): 9410 nM; IC50 (MOLM-13 cells; MOLM-13, 72 h, with 20 nM gilteritinib, 3 days, read-out: MOLM-13 IC50 gilteritinib): 72 nM; IC50 (MOLM-13 cells; MOLM-13, 72 h, without gilteritinib, 3 days, read-out: MOLM-13 IC50): > 10000 nM
5 | O=C1CCC(N2C(=O)c3ccc(NC[C@H]4C[C@@H](n5cc(-c6cnc7ccc(N8CCNCC8)cc7n6)cn5)C4)cc3C2=O)C(=O)N1 (stereo partly drawn) [GS-186, 2-(2,6-Dioxopiperidin-3-yl)-5-(((cis-3-(4-(7-(piperazin-1-yl)quinoxalin-2-yl)-1H-pyrazol-1-yl)cyclobutyl)methyl)amino)isoindoline-1,3-dione] | > 1000 | > 1000 | > 1000 | 100 to 1000 | 
6 | Cc1ccc(-c2cn([C@H]3C[C@H](CNc4ccc5c(c4)C(=O)N(C4CCC(=O)NC4=O)C5=O)C3)nc2C2CC2)nc1 (stereo partly drawn) [GS-256, 5-(((trans-3-(3-Cyclopropyl-4-(5-methylpyridin-2-yl)-1H-pyrazol-1-yl)cyclobutyl)methyl)amino)-2-(2,6-dioxopiperidin-3-yl)isoindoline-1,3-dione] | 10 to 100 | < 10 | 100 to 1000 | < 10 | 
7 | O=C1CCC(N2C(=O)c3ccc(NCCCCC(F)(F)Cn4cc(-c5cnc6ccccc6n5)cn4)cc3C2=O)C(=O)N1 (stereo not shown) [GS-551, 5-((5,5-Difluoro-6-(4-(quinoxalin-2-yl)-1H-pyrazol-1-yl)hexyl)amino)-2-(2,6-dioxopiperidin-3-yl)isoindoline-1,3-dione] |  |  |  |  | IC50 (MV4;11 cells; 72 h, compound alone (without gilteritinib), three days, 11 IC50): > 1000 nM; IC50 (MV4;11 cells; 72 h, compound with gilteritinib 10 nM, three days, 11 IC50 gilteritinib): 100 to 1000 nM; IC50 (MOLM-13 cells; 72 h, compound alone (without gilteritinib), three days, read-out: MOLM-13 IC50): > 1000 nM; IC50 (MOLM-13 cells; 72 h, compound with gilteritinib 20 nM, three days, read-out: MOLM-13 IC50 gilteritinib): 10 to 100 nM
8 | O=C1CCC(N2Cc3c(Nc4ccnc(Nc5cccc(CN6CCC(n7cc(-c8cnc9cccc(Br)c9n8)cn7)CC6)c5)n4)cccc3C2=O)C(=O)N1 (stereo not shown) [GS-028, 3-(4-((2-((3-((4-(4-(8-Bromoquinoxalin-2-yl)-1H-pyrazol-1-yl)piperidin-1-yl)methyl)phenyl)amino)pyrimidin-4-yl)amino)-1-oxoisoindolin-2-yl)piperidine-2,6-dione] | 10 to 100 | 10 to 100 | 100 to 1000 | 10 to 100 | 

Now from value to compound, other results behind:

Row | IC50 (MV4;11 cells; [1]) [nM] | IC50 (MV4;11 cells; [2]) [nM] | IC50 (MOLM-13 cells; [3]) [nM] | IC50 (MOLM-13 cells; [4]) [nM] | SMILES | other results
9 | 100 to 1000 | 10 to 100 | 100 to 1000 | 10 to 100 | O=C1CCC(N2C(=O)c3ccc(NCCCCCCn4cc(-c5cnc6cccc(C7CC7)c6n5)cn4)cc3C2=O)C(=O)N1 (stereo not shown) [GS-389, 5-((6-(4-(8-Cyclopropylquinoxalin-2-yl)-1H-pyrazol-1-yl)hexyl)amino)-2-(2,6-dioxopiperidin-3-yl)isoindoline-1,3-dione] | 
10 | 100 to 1000 | 10 to 100 | 100 to 1000 | < 10 | N#Cc1ccc2ncc(-c3cnn(CCCCCCNc4ccc5c(c4)C(=O)N(C4CCC(=O)NC4=O)C5=O)c3)nc2c1 (stereo not shown) [GS-163, 3-(1-(6-((2-(2,6-Dioxopiperidin-3-yl)-1,3-dioxoisoindolin-5-yl)amino)hexyl)-1H-pyrazol-4-yl)quinoxaline-6-carbonitrile] | 
11 | 100 to 1000 |  | > 1000 |  | Cc1ccccc1-c1cnn(CCCCCCNc2ccc3c(c2)C(=O)N(C2CCC(=O)NC2=O)C3=O)c1 (stereo not shown) [GS-516, 2-(2,6-Dioxopiperidin-3-yl)-5-((6-(4-(o-tolyl)-1H-pyrazol-1-yl)hexyl)amino)isoindoline-1,3-dione] | IC50 (MV4;11 cells; [5]): 10 to 100 nM; IC50 (MOLM-13 cells; [6]): 10 to 100 nM
12 | > 1000 | 100 to 1000 | > 1000 | < 10 | Cc1nn(C2CC(CCCNc3ccc4c(c3)C(=O)N(C3CCC(=O)NC3=O)C4=O)C2)c(C)c1-c1cnc2cccc(F)c2n1 (stereo not shown) [GS-156, 2-(2,6-Dioxopiperidin-3-yl)-5-((3-(3-(4-(8-fluoroquinoxalin-2-yl)-3,5-dimethyl-1H-pyrazol-1-yl)cyclobutyl)propyl)amino)isoindoline-1,3-dione] | 
13 | 10 to 100 | < 10 | 10 to 100 | < 10 | CN1CCN(c2ccc3nc(-c4cnn([C@H]5C[C@H](CCCNc6ccc7c(c6)C(=O)N(C6CCC(=O)NC6=O)C7=O)C5)c4)cnc3c2)CC1 (stereo partly drawn) [GS-397, 2-(2,6-Dioxopiperidin-3-yl)-5-((3-(trans-3-(4-(6-(4-methylpiperazin-1-yl)quinoxalin-2-yl)-1H-pyrazol-1-yl)cyclobutyl)propyl)amino)isoindoline-1,3-dione] | 
14 | 100 to 1000 |  | > 1000 |  | O=C1CCC(N2C(=O)c3ccc(NCCCCCCn4cc(-c5nc6ccccc6nc5C(F)(F)F)cn4)cc3C2=O)C(=O)N1 (stereo not shown) [GS-522, 2-(2,6-Dioxopiperidin-3-yl)-5-((6-(4-(3-(trifluoromethyl)quinoxalin-2-yl)-1H-pyrazol-1-yl)hexyl)amino)isoindoline-1,3-dione] | IC50 (MV4;11 cells; [5]): 10 to 100 nM; IC50 (MOLM-13 cells; [6]): < 10 nM
15 | > 1000 | 100 to 1000 | > 1000 | 100 to 1000 | O=C1CCC(N2C(=O)c3ccc(NC(=O)CCCCC(=O)N4CCC(n5cc(-c6cnc7ccccc7n6)cn5)CC4)cc3C2=O)C(=O)N1 (stereo not shown) [GS-325, N-(2-(2,6-Dioxopiperidin-3-yl)-1,3-dioxoisoindolin-5-yl)-6-oxo-6-(4-(4-(quinoxalin-2-yl)-1H-pyrazol-1-yl)piperidin-1-yl)hexanamide] | 
16 | > 1000 |  | > 1000 |  | Cc1nn(CCCCCCNc2ccc3c(c2)C(=O)N(C2CCC(=O)NC2=O)C3=O)c(C)c1-c1nc2ccccc2nc1C(F)(F)F (stereo not shown) [GS-540, 5-((6-(3,5-Dimethyl-4-(3-(trifluoromethyl)quinoxalin-2-yl)-1H-pyrazol-1-yl)hexyl)amino)-2-(2,6-dioxopiperidin-3-yl)isoindoline-1,3-dione] | IC50 (MV4;11 cells; [5]): 10 to 100 nM; IC50 (MOLM-13 cells; [6]): 10 to 100 nM

From US20240050428A1 (Cullgen (Shanghai), Inc., priority 2020, published 2024)
